For this assay, the system named is Influenza A virus. The experiment in a line: Antiviral activity against rimantadine-resistant Influenza A virus (A/Puerto Rico/8/34(H1N1)) infected in MDCK cells. The note with it: read-out: ED50 (the source's name). Format: functional, A/Puerto Rico/8/1934(H1N1).

Our source for the EC50 values is ChEMBL document CHEMBL4038286, “Synthesis of camphecene derivatives using click chemistry methodology and study of their antiviral activity” (Bioorg Med Chem Lett, 2017).

Structures are written as SMILES.

Take `CCOC(=O)C(C)(Cc1cn(CC/N=C2\C[C@H]3CC[C@]2(C)C3(C)C)nn1)P(=O)(OCC)OCC` (stereo not given in full): the EC50 amounted to 314 µM.

As to `CC(N)[C@@H]1C[C@H]2CC[C@]1(C)C2` (stereo not given in full), the EC50 was 181 µM.

Take `C#CCOCC/N=C1\C[C@H]2CC[C@]1(C)C2(C)C`: the EC50 was above 429 µM.

For `CC1(C)[C@@H]2CC[C@@]1(C)/C(=N/CCn1cc(CCN3CCOCC3)nn1)C2`, the EC50 came to 45 µM.

For `CC1(C)[C@@H]2CC[C@@]1(C)/C(=N/CCN=[N+]=[N-])C2`, the EC50 was 455 µM.

For the compound `CC(N)C12CC3CC(CC(C3)C1)C2` (stereo not given) [RIMANTADINE], the EC50 is 72 µM.

`CC1(C)[C@@H]2CC[C@@]1(C)/C(=N\CCOCc1cn(CC/N=C3\C[C@H]4CC[C@]3(C)C4(C)C)nn1)C2`: the EC50 was found to be 98 µM.

For `CC1(C)[C@@H]2CC[C@@]1(C)/C(=N/CCOCc1cn(-c3ccccc3)nn1)C2`, the EC50 is 63 µM.

On to `CCCCc1cn(CC/N=C2\C[C@H]3CC[C@]2(C)C3(C)C)nn1`, for which the EC50 turned out to be 56 µM.

With `CC(C)(O)Cc1cn(CC/N=C2\C[C@H]3CC[C@]2(C)C3(C)C)nn1`, the EC50 stood at 32 µM.

In the case of `COCCNCCc1cn(CC/N=C2\C[C@H]3CC[C@]2(C)C3(C)C)nn1`, the EC50 worked out at 25 µM.

As for `CNCc1cn(CC/N=C2\C[C@H]3CC[C@]2(C)C3(C)C)nn1`, the EC50 is above 100 µM.

For `CC1(C)[C@@H]2CC[C@@]1(C)/C(=N/CCOCc1cn(CCO)nn1)C2`, the EC50 was found to be 50 µM.

Regarding `CC1(C)[C@@H]2CC[C@@]1(C)/C(=N/CCn1cc(CCO)nn1)C2`, the EC50 is 55 µM.

`NC12CC3CC(CC(C3)C1)C2` [AMANTADINE]: the EC50 came to 60 µM.

As to `CCOP(=O)(OCC)C(Cc1cn(CC/N=C2\C[C@H]3CC[C@]2(C)C3(C)C)nn1)P(=O)(OCC)OCC`, the EC50 is above 58.4 µM.

In the case of `CC1(C)[C@@H]2CC[C@@]1(C)/C(=N/CCn1cc([Si](C)(C)C)nn1)C2`, the EC50 is above 31 µM.

For the compound `CC1(C)[C@@H]2CC[C@@]1(C)/C(=N/CCn1cc(CO)nn1)C2`, the EC50 came out at 616 µM.

With `CCOP(=O)(CCCCn1cc(COCC/N=C2\C[C@H]3CC[C@]2(C)C3(C)C)nn1)OCC`, the EC50 is 299 µM.

For the compound `CC(C)(C)OC(=O)Cn1cc(COCC/N=C2\C[C@H]3CC[C@]2(C)C3(C)C)nn1`, the EC50 was found to be 24 µM.
